Like-named read-outs stand apart in the source and are kept apart here.
Columns and labels:
CDK4/cyclin D3 = biological target: T1, CDK4/cyclin D3 (Homo sapiens, UniProt P11802); test: Human CDK4/cyclin D3 inhibitory activity (QS S Assist CDK4/Cyclin D3_FP Kit, IMAP fluorescence polarization); assay type: biochemical
T1 construct: purchased Carna Biosciences, Inc. QS S Assist CDK4/Cyclin D3_FP Kit
Summary of the method: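 IMAP fluorescence-polarization kinase assay with kit ATP/substrate/metal mix and 12.5 to 25 ng/well enzyme in 20 mM HEPES pH 7.4, 0.01% Tween20, 2 mM DTT. Reaction ran 45 min at room temperature, then binding reagent was added for 30 min in the dark. IC50 was taken from dose-response fits of percent inhibition.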

CDK2/cyclin A2 = biological target: T2, CDK2/cyclin A2 (Homo sapiens, UniProt P24941); test: Human CDK2/cyclin A2 inhibitory activity (QS S Assist CDK2/Cyclin A2_FP Kit, IMAP fluorescence polarization); assay type: biochemical
T2 construct: purchased Carna Biosciences, Inc. QS S Assist CDK2/Cyclin A2_FP Kit
Summary of the method: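 Kinase activity read as fluorescence polarization (485/535 nm) after phosphorylated fluorescent substrate binds IMAP reagent (30 min, RT, dark). Enzyme (2.5 ng/well) reacted 60 min at RT with ATP/substrate/metal in HEPES pH 7.4 buffer with Tween 20 and DTT; no-enzyme wells define 0% activity; IC50 by curve fit.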

[1] = Human CDK4/cyclin D3 inhibitory activity, read-out: CDK4 Activity symbol
[2] = Human CDK2/cyclin A2 inhibitory activity, read-out: CDK2 Activity symbol
[3] = 50% inhibitory concentration against CDK4/cyclin D3, given as class symbol
[4] = 50% inhibitory concentration against CDK2/cyclin A2, given as class symbol

T1 sequence (P11802 whole entry): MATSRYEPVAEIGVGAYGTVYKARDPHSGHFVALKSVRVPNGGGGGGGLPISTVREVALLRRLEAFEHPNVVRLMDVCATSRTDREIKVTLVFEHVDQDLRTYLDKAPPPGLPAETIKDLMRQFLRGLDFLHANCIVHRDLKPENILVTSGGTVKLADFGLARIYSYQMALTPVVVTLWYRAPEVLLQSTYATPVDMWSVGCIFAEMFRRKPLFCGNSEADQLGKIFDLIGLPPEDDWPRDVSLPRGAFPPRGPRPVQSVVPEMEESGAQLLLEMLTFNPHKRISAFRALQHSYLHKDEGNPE
T1 sequence (P30281 whole entry partner): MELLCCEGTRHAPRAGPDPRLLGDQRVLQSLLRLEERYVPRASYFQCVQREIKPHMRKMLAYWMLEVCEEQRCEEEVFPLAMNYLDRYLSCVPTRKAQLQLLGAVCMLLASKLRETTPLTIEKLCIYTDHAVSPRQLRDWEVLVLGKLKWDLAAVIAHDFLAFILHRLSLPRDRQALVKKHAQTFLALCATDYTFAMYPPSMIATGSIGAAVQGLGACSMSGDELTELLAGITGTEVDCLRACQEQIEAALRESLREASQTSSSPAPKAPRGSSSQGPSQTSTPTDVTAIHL

Compound | IC50 (CDK4/cyclin D3; [1]) [nM] | IC50 (CDK2/cyclin A2; [2]) [nM] | IC50 (CDK4/cyclin D3; [3]) [nM] | IC50 (CDK2/cyclin A2; [4]) [nM]
CCCNc1nc([C@@H](C)O)cc2cnc(Nc3ccc(C(=O)N4CCN(C)CC4)cn3)nc12 [Compound 1221] |  |  | < 10 | ≥ 100
COCC(C)(C)Nc1nc(C(F)F)cc2cnc(Nc3ccc(N4CCNCC4)cn3)nc12 [Compound 31] | < 10 | ≥ 100 |  | 
CC(C)Nc1nc([C@@H](C)O)cc2cnc(Nc3ccc(N4CCC(O)C(C)(C)C4)nn3)nc12 (some centres unmarked) [Compound 664] |  |  | < 10 | ≥ 100
Cc1nnc(NCc2ccc(Nc3ncc4cc(C(F)F)nc(NC(C)C)c4n3)nc2)[nH]1 [Compound 158] | 10 to 100 | ≥ 100 |  | 
COCC(C)(C)Nc1nc([C@@H](C)O)cc2cnc(Nc3ccc(N4CCC(O)CC4)nn3)nc12 [Compound 202] | 10 to 100 | ≥ 100 |  | 
CNC1CCCC1Oc1ccc(Nc2ncc3cc(C(C)O)nc(NC(C)C)c3n2)nc1 (centres unmarked) [Compound 799] |  |  | < 10 | ≥ 100
CC(C)Nc1nc(C(C)O)cc2cnc(Nc3ccc(N4CCC(N)C4)cn3)nc12 (centres unmarked) [Compound 76] | < 10 | ≥ 100 |  | 
CCCNc1nc(C2CCOC2)cc2cnc(Nc3ccc(N4CCNCC4)nn3)nc12 (centres unmarked) [Compound 946] |  |  | < 10 | ≥ 100
C[C@@H](O)c1cc2cnc(Nc3ccc(CN4CCNCC4)cn3)nc2c(N[C@@H]2CCCOC2)n1 [Compound 257] | < 10 | ≥ 100 |  | 
CC(C)Nc1nc([C@@H](C)O)cc2cnc(Nc3ccc(NC(=O)C4CCCCN4)cn3)nc12 (some centres unmarked) [Compound 788] |  |  | < 10 | ≥ 100
CO[C@H](C)c1cc2cnc(Nc3ccc(N4CCCNCC4=O)cn3)nc2c(NC(C)C)n1 [Compound 492] | < 10 | 10 to 100 |  | 
CO[C@H](C)c1cc2cnc(Nc3ccc(N4CCNCC4)nn3)nc2c(N[C@H]2CC[C@H](O)CC2)n1 [Compound 341] | < 10 | ≥ 100 |  | 
O=C(O)C1CCN(Cc2ccc(Nc3ncc4cc(C(F)F)nc(N[C@H]5CCCOC5)c4n3)nc2)CC1 [Compound 806] |  |  | < 10 | ≥ 100
CC(C)Nc1nc([C@@H](C)O)cc2cnc(Nc3ccc(SCCN(C)C)nn3)nc12 [Compound 614] | < 10 | ≥ 100 |  | 
CCNc1nc(C(C)=O)cc2cnc(Nc3ccc(N4CCNCC4)cn3)nc12 [Compound 58] | 10 to 100 | ≥ 100 |  | 
C[C@@H](O)c1cc2cnc(Nc3ccc(N4CCN(C=O)CC4=O)cn3)nc2c(N[C@@H]2CCOC2)n1 [Compound 353] | < 10 | ≥ 100 |  | 
CNCCOc1ccc(Nc2ncc3cc(C(C)O)nc(NC4(C)CCCOC4)c3n2)nc1 (single isomer, unassigned) [Compound 870] |  |  | < 10 | ≥ 100
O=C(O)[C@H]1CC[C@H](Nc2nc(C(F)F)cc3cnc(Nc4ccc(N5CCNCC5)nn4)nc23)CC1 [Compound 384] | 10 to 100 | ≥ 100 |  | 
CC(C)Nc1nc([C@@H](C)O)cc2cnc(Nc3ccc(N4CCN(CC(=O)N5CCOCC5)CC4)nn3)nc12 [Compound 967] |  |  | < 10 | ≥ 100
CO[C@H](C)c1cc2cnc(Nc3ccc(CN4CCN(CC(N)=O)CC4)cn3)nc2c(NC(C)C)n1 [Compound 970] |  |  | < 10 | ≥ 100
COCC(C)(C)Nc1nc([C@@H](C)O)cc2cnc(Nc3ccc(N4CCNCC4)nn3)nc12 [Compound 212] | < 10 | ≥ 100 |  | 
CNCC(C)(C)c1ccc(Nc2ncc3cc([C@@H](C)O)nc(NC(C)(C)COC)c3n2)nc1 [Compound 264] | < 10 | ≥ 100 |  | 
C[C@@H](O)c1cc2cnc(Nc3ccc(N4CCNCC4)nn3)nc2c(NC2CCCC2C(=O)O)n1 (some centres unmarked) [Compound 309] | ≥ 100 | ≥ 100 |  | 
CC(C)Nc1nc([C@@H](C)O)cc2cnc(Nc3ccc(CN4CCN(C(=O)C5CCOC5)CC4)cn3)nc12 (some centres unmarked) [Compound 1193] |  |  | < 10 | ≥ 100
CC(C)Nc1nc(C(C)O)cc2cnc(Nc3ccc(N4CCC(N(C)C)C(F)C4)nn3)nc12 (centres unmarked) [Compound 621] | < 10 | ≥ 100 |  | 
C[C@@H](O)c1cc2cnc(Nc3ccc(CN4CCC(C(=O)O)CC4)cn3)nc2c(NC(C)(C)C)n1 [Compound 837] |  |  | < 10 | 10 to 100
CC(C)Nc1nc([C@@H](C)O)cc2cnc(Nc3ccc(N4CC5(CCNC5)C4)nn3)nc12 [Compound 574] | < 10 | ≥ 100 |  | 
CCNc1nc([C@@H](C)O)cc2cnc(Nc3ccc(CN4CCN(CCO)C[C@@H]4C)cn3)nc12 [Compound 983] |  |  | < 10 | ≥ 100

Second part, the compound after the results:

IC50 (CDK4/cyclin D3; [1]) [nM] | IC50 (CDK2/cyclin A2; [2]) [nM] | IC50 (CDK4/cyclin D3; [3]) [nM] | IC50 (CDK2/cyclin A2; [4]) [nM] | Compound
< 10 | 10 to 100 |  |  | CC(C)Nc1nc(C(F)F)cc2cnc(Nc3ccc(CN4CCC(C(=O)NS(C)(=O)=O)CC4)cn3)nc12 [Compound 236]
< 10 | 10 to 100 |  |  | CC(C)Nc1nc(C(F)F)cc2cnc(Nc3ccc(N4CCOCC4)cn3)nc12 [Compound 43]
< 10 | ≥ 100 |  |  | CC(=O)c1cc2cnc(Nc3ccc(N4CCNCC4)nn3)nc2c(NC2CCOCC2)n1 [Compound 330]
 |  | < 10 | ≥ 100 | CC(C)Nc1nc([C@@H](C)O)cc2cnc(Nc3ccc(N4CCN(C[C@@H](C)O)CC4)nn3)nc12 [Compound 677]
< 10 | ≥ 100 |  |  | CC(C)Nc1nc(C(F)F)cc2cnc(Nc3ccc(CN(C)S(C)(=O)=O)cn3)nc12 [Compound 141]
 |  | < 10 | ≥ 100 | CC(C)Nc1nc(C2CCOC2)cc2cnc(Nc3ccc(N4CCNCC4=O)cn3)nc12 (single isomer, unassigned) [Compound 773]
< 10 | ≥ 100 |  |  | CNC1(C)CCN(c2ccc(Nc3ncc4cc([C@@H](C)O)nc(NC(C)C)c4n3)nn2)CC1 [Compound 601]
< 10 | ≥ 100 |  |  | CO[C@H](C)c1cc2cnc(Nc3ccc(C4CCNCC4)cn3)nc2c(NC(C)C)n1 [Compound 232]
 |  | 10 to 100 | ≥ 100 | CO[C@H](C)c1nc(NC(C)C)c2nc(Nc3ccc(C(=O)N4CCNCC4)cn3)ncc2c1Cl [Compound 842]
 |  | < 10 | ≥ 100 | O=C(O)C1CCN(Cc2ccc(Nc3ncc4cc(C(F)F)nc(NC5CCC5)c4n3)nc2)CC1 [Compound 1099]
 |  | < 10 | ≥ 100 | C[C@@H](O)c1cc2cnc(Nc3ccc(N4CCNCC4=O)cn3)nc2c(NC2CCCC2)n1 [Compound 1078]
 |  | < 10 | ≥ 100 | CCCNc1nc([C@@H](C)O)cc2cnc(Nc3ccc(CN4CCN(CCO)C[C@H]4C)cn3)nc12 [Compound 1076]
 |  | < 10 | ≥ 100 | CC(C)Nc1nc([C@@H](C)O)cc2cnc(Nc3ccc(N4CCN(C[C@H](C)O)CCC4=O)cn3)nc12 [Compound 720]
 |  | 10 to 100 | ≥ 100 | CC(C)Nc1nc(C2CC(F)(F)C2)cc2cnc(Nc3ccc(N4CCNCC4=O)cn3)nc12 [Compound 1042]
≥ 100 | ≥ 100 |  |  | FC(F)c1cc2cnc(Nc3ccc(N4CCNCC4)cn3)nc2c(NC2COC2)n1 [Compound 33]
 |  | < 10 | ≥ 100 | C[C@@H](O)c1cc2cnc(Nc3ccc(CN4CCN(CCO)CC4)cn3)nc2c(NC2CC2)n1 [Compound 997]
 |  | 10 to 100 | ≥ 100 | c1cc2c(nc1Nc1ncc3cc(C4CCOC4)nc(NC4CCCOC4)c3n1)CCNC2 (single isomer, unassigned) [Compound 943]
 |  | < 10 | ≥ 100 | CCCNc1nc([C@@H](C)O)cc2cnc(Nc3ccc(N4CCNCC4=O)cn3)nc12 [Compound 814]
 |  | < 10 | ≥ 100 | CC(C)Nc1nc([C@@H](C)O)cc2cnc(Nc3ccc(N4CCn5cncc5C4)nn3)nc12 [Compound 964]
< 10 | ≥ 100 |  |  | C[C@@H](O)c1cc2cnc(Nc3ccc(CN4CCNCC4)cn3)nc2c(N[C@H]2CC[C@H](C(=O)O)CC2)n1 [Compound 342]
 |  | < 10 | 10 to 100 | O=C1CNCCN1c1ccc(Nc2ncc3cc(C(F)F)nc(NC4CCOCC4)c3n2)nc1 [Compound 822]
< 10 | ≥ 100 |  |  | CO[C@H](C)c1cc2cnc(Nc3ccc(OCCCN(C)C)cn3)nc2c(NC(C)C)n1 [Compound 283]
< 10 | 10 to 100 |  |  | CC(C)Nc1nc(C(F)F)cc2cnc(Nc3ccc(N4CCN(C)CC4=O)cn3)nc12 [Compound 80]
 |  | < 10 | ≥ 100 | C[C@@H](O)c1cc2cnc(Nc3ccc4c(n3)CCN(C(=O)CO)C4)nc2c(N[C@H]2CC[C@@H](C)CC2)n1 [Compound 653]
< 10 | ≥ 100 |  |  | CC(C)Nc1nc(C(F)F)cc2cnc(Nc3ccc(CCCC(N)=O)cn3)nc12 [Compound 135]
 |  | 10 to 100 | ≥ 100 | CC(C)Nc1nc([C@@H](C)O)cc2cnc(Nc3ccc(N4CCC(C(=O)O)CC4)cn3)nc12 [Compound 836]
< 10 | 10 to 100 |  |  | CC(C)Nc1nc(C(F)F)cc2cnc(Nc3ccc(CN4CCNCC4)cn3)nc12 [Compound 47]
< 10 | ≥ 100 |  |  | CO[C@H](C)c1cc2cnc(Nc3ccc(N4CC[C@@H](N)[C@@H](F)C4)cn3)nc2c(NC(C)C)n1 [Compound 466]
10 to 100 | ≥ 100 |  |  | CC(C)Nc1nc(C(F)F)cc2cnc(Nc3ccc(O[C@H]4CC[C@H](O)CC4)cn3)nc12 [Compound 120]
 |  | < 10 | ≥ 100 | COC1CCC(Nc2nc([C@@H](C)O)cc3cnc(Nc4ccc(N5CCN(C)CC5)nn4)nc23)CC1 (some centres unmarked) [Compound 641]
